# Measurements from PubChem BioAssay AID2060513 (Molecular Pharmacology Branch, DTP, NCI, 2025).
# Several values for one entry are separate records, joined by “and”; a condition that tells them apart may be missing. Equal values may be shown once.
# Test system: 299254-011-R-J1-PDC complex spheroids viability
# Assay: Anticancer human tumor 299254-011-R-J1-PDC patient-derived melanoma cell line growth inhibition [GQUAD]
# Conditions: for viability, T/C: stronger effect = lower value
# Source text: DNA G-quadruplex Stabilizer Agents in Combinations in Complex Spheroids
# A high-throughput screen of multi-cell type tumor spheroids was designed to identify active combinations of DNA G-quadruplex stabilizer agents and targeted small molecules. Complex spheroids include a stromal component modeled by human endothelial cells (HUVEC) and fibroblasts modeled by human mesenchymal stem cells (MSCs). The concentration ranges selected for each drug and investigational agent were based upon clinically achievable concentrations if the clinical Cmax of the agent was known.
# Compounds. The drugs and investigational agents: pidnarulex (CX-5461; NSC782164), APTO-253 (NSC789042), BRACO-19 (NSC847499), peposertib (NSC802822), ceralasertib (NSC780249), elimusertib (NSC800525), camonsertib (NSC841442), AZD-1390 (NSC803789), olaparib (NSC753686), talazoparib (NSC767125), ART-558 (NSC835418), sotorasib (NSC818433), MRTX-1133 (NSC836407), SN-38 (NSC673596), topotecan (NSC609699), etoposide (NSC141540), doxorubicin (NSC123127), gemcitabine (NSC613327), 5-fluorouracil (NSC19893), paclitaxel (NSC125973), vemurafenib (NSC761431), panobinostat (NSC761190), R-306465 (JNJ-16241199; NSC773264), adavosertib (NSC754352), TP-3654 (NSC805149), carboplatin (NSC241240), KSQ-4279 (NSC840948), and staurosporine (NSC755774) were obtained from the National Cancer Institute (NCI) Developmental Therapeutics Program Chemical Repository (34). The FDA-approved anticancer drug set is available from the NCI Developmental Therapeutics Program. […] The stock solutions were prepared in dimethyl sulfoxide (DMSO, Sigma-Aldrich, St. Louis, MO, cat. D2650) at 800-fold the tested concentration and stored at -70 degrees C prior to their use. All drugs and investigational agents were tested over a range starting from a high concentration at or near the clinical Cmax and decreasing in half-log increments. If the clinical Cmax for an agent had not been determined, the highest concentration tested was 10 microM.
# 2.3 Cell Culture. All cells were maintained in an incubator at 37 degrees C and 5% CO2 with 95% humidity. The PDC lines were cultured according to standard operating procedures established by the NCI PDMR. All PDCs were thawed and cultured in Matrigel-coated flasks prepared with a working solution of 1X Ham's F-12 nutrient mix, without supplementation (Invitrogen, cat. 11765054), 100 U/mL penicillin-streptomycin (Invitrogen, cat. 15140122), and 2.5% Matrigel (Corning Inc., cat. 354248) for the first three passages. The 857933-349-R-J2-PDC line was cultured in 6C/Colon 1B media, which includes advanced DMEM/F-12 (Thermo Fisher Scientific, cat. 12634028), 10 mM HEPES (Thermo Fisher Scientific, cat. 15630080), 1X GlutaMAX supplement (Thermo Fisher Scientific, cat. 35050061), 0.1 mg/mL primocin (InvivoGen, cat. ant-pm-2), 10% defined fetal bovine serum, heat inactivated (HyClone Laboratories Inc., cat. SH30070.03HI), 50% L-WRN conditioned media (ATCC, cat. CRL-3276), 1.25 mM N-Acetyl-L-cysteine (Sigma-Aldrich, cat. A9165), 10 mM nicotinamide (Sigma-Aldrich, cat. N0636), 1X B-27 supplement (Thermo Fisher Scientific, cat. 17504044), 1X N-2 supplement (Thermo Fisher Scientific, cat. 17502048), 10 microM Y-27632 dihydrochloride (Tocris Bioscience, cat. 1254), and 50 ng/mL human EGF recombinant protein (Thermo Fisher Scientific, cat. PHG0311). The 485176-168-R4-J1-PDC line was cultured in Panc media, which includes all 6C/Colon 1B media components plus 100 ng/mL human FGF-10 (Thermo Fisher Scientific, cat. 100-26), 500 nM SB-431542 (Selleckchem, cat. S1067), and gastrin (Tocris, cat. 3006).
# […]
# 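Further: spheroids exposed to the agents for seven days before readout.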
# 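Wherever viability, T/C is given: percent viability relative to DMSO vehicle control wells = 100%.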
compound,measurement,setting,value
O=C(c1cc(Cc2n[nH]c(=O)c3ccccc23)ccc1F)N1CCN(C(=O)C2CC2)CC1,"viability, T/C",compound 0.0316 µM,94.2% and 117% and 81.5%
same,"viability, T/C",compound 0.1 µM,111% and 86.5% and 85.5%
same,"viability, T/C",compound 0.316 µM,101% and 84.9% and 95.2%
same,"viability, T/C",compound 1 µM,115% and 101% and 91.1%
same,"viability, T/C",compound 3.16 µM,132% and 80.7% and 87.9%
same,"viability, T/C",compound 10 µM,97.2% and 71.2% and 88.4%
same,IC50,curve of compound,> 10 µM
C#Cc1c(F)ccc2cc(O)cc(-c3ncc4c(N5CC6CCC(C5)N6)nc(OCC56CCCN5CC(F)C6)nc4c3F)c12 (stereo not drawn),"viability, T/C",compound 0.0316 µM,117% and 84.2% and 84%
same,"viability, T/C",compound 0.1 µM,109% and 86.1% and 98.1%
same,"viability, T/C",compound 0.316 µM,90.8% and 85.1% and 95.8%
same,"viability, T/C",compound 1 µM,118% and 83.9% and 81%
same,"viability, T/C",compound 3.16 µM,86.5% and 93.7% and 84.6%
same,"viability, T/C",compound 10 µM,82.7% and 72.7% and 67.4%
same,IC50,curve of compound,> 10 µM
C#Cc1c(F)ccc2cc(O)cc(-c3ncc4c(N5CC6CCC(C5)N6)nc(OCC56CCCN5CC(F)C6)nc4c3F)c12 (stereo not drawn) + CN(C)c1ccc(Nc2c3ccc(NC(=O)CCN4CCCC4)cc3nc3cc(NC(=O)CCN4CCCC4)ccc23)cc1,IC50,"curve of first compound, second compound 0.0316 µM",> 10 µM
same,IC50,"curve of first compound, second compound 0.1 µM",> 10 µM
same,IC50,"curve of first compound, second compound 0.316 µM",> 10 µM
same,IC50,"curve of first compound, second compound 1 µM",> 10 µM
same,IC50,"curve of first compound, second compound 3.16 µM",> 10 µM
same,IC50,"curve of first compound, second compound 10 µM",> 10 µM
same,"viability, T/C","second compound 0.0316 µM, first compound 0.0316 µM",85.8%
same,"viability, T/C","second compound 0.0316 µM, first compound 0.1 µM",92.7%
same,"viability, T/C","second compound 0.0316 µM, first compound 0.316 µM",101%
same,"viability, T/C","second compound 0.0316 µM, first compound 1 µM",105%
same,"viability, T/C","second compound 0.0316 µM, first compound 3.16 µM",104%
same,"viability, T/C","second compound 0.0316 µM, first compound 10 µM",78.9%
same,"viability, T/C","second compound 0.1 µM, first compound 0.0316 µM",114%
same,"viability, T/C","second compound 0.1 µM, first compound 0.1 µM",96.4%
same,"viability, T/C","second compound 0.1 µM, first compound 0.316 µM",94.8%
same,"viability, T/C","second compound 0.1 µM, first compound 1 µM",101%
same,"viability, T/C","second compound 0.1 µM, first compound 3.16 µM",85.2%
same,"viability, T/C","second compound 0.1 µM, first compound 10 µM",66%
same,"viability, T/C","second compound 0.316 µM, first compound 0.0316 µM",113%
same,"viability, T/C","second compound 0.316 µM, first compound 0.1 µM",114%
same,"viability, T/C","second compound 0.316 µM, first compound 0.316 µM",82.2%
same,"viability, T/C","second compound 0.316 µM, first compound 1 µM",79.3%
same,"viability, T/C","second compound 0.316 µM, first compound 3.16 µM",93.5%
same,"viability, T/C","second compound 0.316 µM, first compound 10 µM",77%
same,"viability, T/C","second compound 1 µM, first compound 0.0316 µM",85.4%
same,"viability, T/C","second compound 1 µM, first compound 0.1 µM",105%
same,"viability, T/C","second compound 1 µM, first compound 0.316 µM",76.7%
same,"viability, T/C","second compound 1 µM, first compound 1 µM",99.7%
same,"viability, T/C","second compound 1 µM, first compound 3.16 µM",89.2%
same,"viability, T/C","second compound 1 µM, first compound 10 µM",83.9%
same,"viability, T/C","second compound 3.16 µM, first compound 0.0316 µM",110%
same,"viability, T/C","second compound 3.16 µM, first compound 0.1 µM",123%
same,"viability, T/C","second compound 3.16 µM, first compound 0.316 µM",97.3%
same,"viability, T/C","second compound 3.16 µM, first compound 1 µM",112%
same,"viability, T/C","second compound 3.16 µM, first compound 3.16 µM",73.6%
same,"viability, T/C","second compound 3.16 µM, first compound 10 µM",69.9%
same,"viability, T/C","second compound 10 µM, first compound 0.0316 µM",100%
same,"viability, T/C","second compound 10 µM, first compound 0.1 µM",94.8%
same,"viability, T/C","second compound 10 µM, first compound 0.316 µM",101%
same,"viability, T/C","second compound 10 µM, first compound 1 µM",87.8%
same,"viability, T/C","second compound 10 µM, first compound 3.16 µM",85.4%
same,"viability, T/C","second compound 10 µM, first compound 10 µM",72.5%
O=C(NO)c1cnc(N2CCN(S(=O)(=O)c3ccc4ccccc4c3)CC2)nc1,"viability, T/C",compound 0.0316 µM,99.8% and 95.4% and 87.7%
same,"viability, T/C",compound 0.1 µM,103% and 87.4% and 81.9%
same,"viability, T/C",compound 0.316 µM,73.4% and 75% and 32.2%
same,"viability, T/C",compound 1 µM,3.62% and 4.16% and 0.67%
same,"viability, T/C",compound 3.16 µM,0.32% and 0.22%
same,"viability, T/C",compound 10 µM,0.34% and 0.21%
same,IC50,curve of compound,0.465 µM and 0.475 µM and 0.21 µM
CCc1c2c(nc3ccc(O)cc13)-c1cc3c(c(=O)n1C2)COC(=O)[C@]3(O)CC,"viability, T/C",compound 0.000999 µM,94.3% and 102% and 120%
same,"viability, T/C",compound 0.00316 µM,83.9% and 104% and 97.4%
same,"viability, T/C",compound 0.00999 µM,87.7% and 72.2% and 92.2%
same,"viability, T/C",compound 0.0316 µM,64.8% and 104% and 70.9%
same,"viability, T/C",compound 0.0999 µM,80% and 86.2% and 77.4%
same,"viability, T/C",compound 0.316 µM,89.8% and 84.2% and 73.6%
same,IC50,curve of compound,> 0.316 µM
Cc1cnc(CNC(=O)c2c(=O)c3ccc(N4CCCN(C)CC4)nc3n3c2sc2ccccc23)cn1,"viability, T/C",compound 0.316 µM,100% [middle of 12 runs]
Nc1ccn(C2OC(CO)C(O)C2(F)F)c(=O)n1 (stereo not drawn),"viability, T/C",compound 0.0316 µM,95.8% and 98.2% and 86.5%
same,"viability, T/C",compound 0.1 µM,83.6% and 88.4% and 76%
same,"viability, T/C",compound 0.316 µM,80.3% and 72.2% and 61.7%
same,"viability, T/C",compound 1 µM,41.2% and 60.1% and 52.5%
same,"viability, T/C",compound 3.16 µM,58.2% and 50.2% and 50.8%
same,"viability, T/C",compound 10 µM,53.6% and 73% and 51.9%
same,IC50,curve of compound,> 10 µM
